Consider 12 compounds from patent US20220370440A1 (Lead Discovery Center GmbH, priority 2018, published 2022).

The subject of one experiment is A431. The experiment is described as follows: A431 CellTiter-Glo. The following applies: Homo sapiens, A-431; 72 h compound incubation; read-out: A431 CTG IC50. It is filed as cell-based. In a few lines:
(§1)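 Luminescence from cellular ATP serves as the viability signal after cells are treated with compound dilutions for 72 h at 37° C. IC50 is derived by curve fitting, with DMSO-treated and 10 μM Staurosporine-treated wells defining the assay window.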

The target of another experiment is EGFR T790ML858R (Homo sapiens, UniProt P00533, L858R/T790M). The experiment is described as follows: EGFR T790ML858R Lance assay. It is filed as biochemical. As for the experimental part: (§2) Inhibition is indicated as […] [nM] (“−”=not measured). Compounds having an activity designated as “A” provided an IC50≤100 nM; compounds having an activity designated as “B” provided an 100 nM<IC50≤500 nM; compounds having an activity designated as “C” provided an 500 nM<IC50≤1000 nM; compounds having an activity designated as “D” provided an 1000 nM<IC50≤100000 nM; and compounds having an activity designated as “E” provided an IC50>10000 nM.

The target of experiment [1] is EGFR Exon 20 INSNPH Ba/F3 (Homo sapiens, UniProt P00533, DUP771-773, cells depend on it). The experiment can be described thus: EGFR Exon 20 INSNPH Ba/F3 CellTiter-Glo. The experiment is classed as cell-based. The following applies: CellTiter-Glo, 72 h, read-out: EGFR Exon 20 INSNPH Ba/F3 CTG IC50. Put shortly:
(§3)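 Ba/F3 cells were seeded, left 24 h at 37 °C/5% CO2, then exposed to compound dilutions in DMSO for 72 h. Viability was read as ATP luminescence (CellTiter-Glo) and IC50 fitted from dose–response curves; DMSO and 10 μM staurosporine defined the controls, and plates needed Z′ ≥0.5.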
For orientation: Cellular ATP, detected with luciferase, serves as a proxy for viable cell number.

The target of the next experiment is EGFR wt (Homo sapiens, UniProt P00533). The experiment can be described thus: EGFR wt Lance assay. It is filed as biochemical. On the procedure: as §2
Sequence of EGFR wt (P00533 25-1210): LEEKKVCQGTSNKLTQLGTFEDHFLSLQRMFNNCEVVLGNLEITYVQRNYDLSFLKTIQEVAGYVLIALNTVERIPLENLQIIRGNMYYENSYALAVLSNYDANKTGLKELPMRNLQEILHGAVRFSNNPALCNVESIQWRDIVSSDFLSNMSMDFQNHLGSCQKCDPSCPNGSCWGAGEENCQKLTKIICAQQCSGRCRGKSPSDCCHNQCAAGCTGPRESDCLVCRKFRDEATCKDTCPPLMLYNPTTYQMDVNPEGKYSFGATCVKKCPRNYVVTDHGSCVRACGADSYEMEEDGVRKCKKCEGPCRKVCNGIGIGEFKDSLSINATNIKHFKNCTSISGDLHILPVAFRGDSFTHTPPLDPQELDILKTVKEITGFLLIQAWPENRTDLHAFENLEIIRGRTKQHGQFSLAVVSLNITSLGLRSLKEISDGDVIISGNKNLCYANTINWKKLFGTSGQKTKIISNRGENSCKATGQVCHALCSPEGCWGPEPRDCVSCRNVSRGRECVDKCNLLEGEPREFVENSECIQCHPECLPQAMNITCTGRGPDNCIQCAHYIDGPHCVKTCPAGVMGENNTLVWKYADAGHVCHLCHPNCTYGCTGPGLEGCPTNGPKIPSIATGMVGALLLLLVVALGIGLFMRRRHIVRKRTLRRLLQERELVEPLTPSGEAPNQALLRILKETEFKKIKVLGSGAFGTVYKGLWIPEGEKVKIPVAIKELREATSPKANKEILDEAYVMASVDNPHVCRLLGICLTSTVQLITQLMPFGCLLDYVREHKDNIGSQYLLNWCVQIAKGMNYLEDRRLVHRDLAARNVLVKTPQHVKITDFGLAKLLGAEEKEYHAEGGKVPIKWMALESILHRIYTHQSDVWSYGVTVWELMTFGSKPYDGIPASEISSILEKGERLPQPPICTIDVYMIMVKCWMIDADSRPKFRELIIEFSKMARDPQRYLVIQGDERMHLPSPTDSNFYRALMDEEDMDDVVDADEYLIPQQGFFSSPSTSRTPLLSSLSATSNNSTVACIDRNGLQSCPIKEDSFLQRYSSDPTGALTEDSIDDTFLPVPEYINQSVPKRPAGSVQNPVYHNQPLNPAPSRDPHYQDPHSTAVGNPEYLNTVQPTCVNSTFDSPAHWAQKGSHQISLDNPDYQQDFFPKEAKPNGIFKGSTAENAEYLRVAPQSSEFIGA
In the next experiment the target is T1, HER2 INS YVMA (Homo sapiens, UniProt P04626, INS775YVMA).
T1 construct: purchased DPF
T1 sequence (P04626 with tags, fused parts or gaps INS775YVMA): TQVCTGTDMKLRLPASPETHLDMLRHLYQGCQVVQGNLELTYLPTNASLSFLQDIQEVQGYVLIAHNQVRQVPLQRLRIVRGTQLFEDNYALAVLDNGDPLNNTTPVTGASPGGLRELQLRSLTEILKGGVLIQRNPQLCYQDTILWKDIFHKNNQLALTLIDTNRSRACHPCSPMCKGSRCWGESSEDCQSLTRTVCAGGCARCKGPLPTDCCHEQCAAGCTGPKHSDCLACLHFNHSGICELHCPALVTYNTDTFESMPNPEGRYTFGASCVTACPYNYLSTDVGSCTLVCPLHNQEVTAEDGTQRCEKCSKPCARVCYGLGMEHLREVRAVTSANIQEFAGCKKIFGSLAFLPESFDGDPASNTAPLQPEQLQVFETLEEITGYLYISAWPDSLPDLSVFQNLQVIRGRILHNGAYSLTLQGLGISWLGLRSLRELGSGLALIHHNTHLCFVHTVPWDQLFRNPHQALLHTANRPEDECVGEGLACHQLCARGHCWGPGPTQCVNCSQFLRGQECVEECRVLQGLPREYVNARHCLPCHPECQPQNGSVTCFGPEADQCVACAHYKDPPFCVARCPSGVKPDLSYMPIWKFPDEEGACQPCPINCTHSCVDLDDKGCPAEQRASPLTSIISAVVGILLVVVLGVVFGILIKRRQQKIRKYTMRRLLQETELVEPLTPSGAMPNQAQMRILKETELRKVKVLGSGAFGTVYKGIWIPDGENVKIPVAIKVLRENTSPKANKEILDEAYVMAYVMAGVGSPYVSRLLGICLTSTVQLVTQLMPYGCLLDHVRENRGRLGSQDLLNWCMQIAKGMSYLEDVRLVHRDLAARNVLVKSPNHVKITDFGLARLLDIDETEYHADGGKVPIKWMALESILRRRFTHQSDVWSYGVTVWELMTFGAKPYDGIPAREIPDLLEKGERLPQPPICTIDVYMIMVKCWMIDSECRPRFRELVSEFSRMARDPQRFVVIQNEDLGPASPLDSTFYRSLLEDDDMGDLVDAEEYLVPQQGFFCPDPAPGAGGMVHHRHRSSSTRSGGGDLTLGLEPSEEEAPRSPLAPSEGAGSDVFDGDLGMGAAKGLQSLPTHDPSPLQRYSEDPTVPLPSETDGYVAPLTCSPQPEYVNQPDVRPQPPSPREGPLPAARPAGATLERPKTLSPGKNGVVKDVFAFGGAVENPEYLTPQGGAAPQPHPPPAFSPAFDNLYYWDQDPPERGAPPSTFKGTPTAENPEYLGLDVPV
The experiment is described as follows: Lance Kinase Activity Assay, HER2 INS YVMA (Her2 Exon 20 INSYVMA Lance). As to conditions: biochemical Lance assay. The experiment is classed as biochemical. Put shortly:
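Kinase phosphorylates a ULight-labelled peptide substrate; Eu anti-phospho antibody gives TR-FRET (ex 340 nm, em 665/615 nm). Compounds in 1:3 serial dilution over 8 steps, reaction started with ATP, 1 h at room temperature, stopped with EDTA-containing detection mix for 1 h. IC50 from sigmoidal dose-response curves.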

In experiment [2] the target is Her2 Exon 20 INSYVMA Ba/F3 (Homo sapiens, UniProt P04626, DUP772-775, cells depend on it). The experiment is described as follows: Her2 Exon 20 INSYVMA Ba/F3 CellTiter-Glo. The experiment is classed as cell-based. As to conditions: CellTiter-Glo, 72 h, read-out: Her2 Exon 20 INSYVMA Ba/F3 CTG IC50. In a few lines: as §3
Sequence of Her2 Exon 20 INSYVMA Ba/F3 (P04626 with tags, fused parts or gaps DUP772-775): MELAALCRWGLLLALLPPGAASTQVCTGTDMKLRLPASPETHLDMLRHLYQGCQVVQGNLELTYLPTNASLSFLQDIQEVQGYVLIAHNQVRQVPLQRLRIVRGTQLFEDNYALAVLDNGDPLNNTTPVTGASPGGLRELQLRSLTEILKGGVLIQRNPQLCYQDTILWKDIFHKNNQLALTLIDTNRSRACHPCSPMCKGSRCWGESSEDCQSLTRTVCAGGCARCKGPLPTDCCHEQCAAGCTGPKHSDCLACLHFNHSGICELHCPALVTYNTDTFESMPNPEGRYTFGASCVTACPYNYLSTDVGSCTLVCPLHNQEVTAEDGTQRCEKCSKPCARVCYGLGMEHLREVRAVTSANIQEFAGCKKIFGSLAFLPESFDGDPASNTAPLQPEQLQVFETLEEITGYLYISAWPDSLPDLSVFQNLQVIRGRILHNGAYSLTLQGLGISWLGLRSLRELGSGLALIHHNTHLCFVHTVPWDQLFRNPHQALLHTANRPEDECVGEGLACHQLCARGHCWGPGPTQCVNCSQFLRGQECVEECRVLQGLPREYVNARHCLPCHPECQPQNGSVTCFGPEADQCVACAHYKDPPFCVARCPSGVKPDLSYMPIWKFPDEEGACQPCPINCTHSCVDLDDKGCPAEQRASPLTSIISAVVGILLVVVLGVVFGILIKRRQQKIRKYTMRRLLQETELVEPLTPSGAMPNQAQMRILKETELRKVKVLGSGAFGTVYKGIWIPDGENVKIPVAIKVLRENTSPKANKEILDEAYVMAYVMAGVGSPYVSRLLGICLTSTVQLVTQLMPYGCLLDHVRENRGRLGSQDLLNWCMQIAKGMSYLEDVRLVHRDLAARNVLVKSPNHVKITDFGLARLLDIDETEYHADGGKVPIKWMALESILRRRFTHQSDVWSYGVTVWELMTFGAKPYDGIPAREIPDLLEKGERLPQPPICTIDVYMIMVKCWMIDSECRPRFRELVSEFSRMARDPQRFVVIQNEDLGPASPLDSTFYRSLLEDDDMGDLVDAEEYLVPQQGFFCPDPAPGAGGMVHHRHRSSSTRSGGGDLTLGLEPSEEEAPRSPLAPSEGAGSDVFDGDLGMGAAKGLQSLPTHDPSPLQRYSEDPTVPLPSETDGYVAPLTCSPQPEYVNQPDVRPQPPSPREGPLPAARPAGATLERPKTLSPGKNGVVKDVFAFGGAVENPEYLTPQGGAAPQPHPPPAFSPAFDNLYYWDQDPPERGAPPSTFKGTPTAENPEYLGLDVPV
A further experiment deals with H1975. The experiment can be described thus: H1975 CellTiter-Glo. The following applies: Homo sapiens, NCI-H1975; 72 h compound incubation; read-out: H1975 CTG IC50. The experiment is classed as cell-based. Put shortly: as §1

Sequence of EGFR Exon 20 INSNPH Ba/F3 (P00533 with tags, fused parts or gaps DUP771-773): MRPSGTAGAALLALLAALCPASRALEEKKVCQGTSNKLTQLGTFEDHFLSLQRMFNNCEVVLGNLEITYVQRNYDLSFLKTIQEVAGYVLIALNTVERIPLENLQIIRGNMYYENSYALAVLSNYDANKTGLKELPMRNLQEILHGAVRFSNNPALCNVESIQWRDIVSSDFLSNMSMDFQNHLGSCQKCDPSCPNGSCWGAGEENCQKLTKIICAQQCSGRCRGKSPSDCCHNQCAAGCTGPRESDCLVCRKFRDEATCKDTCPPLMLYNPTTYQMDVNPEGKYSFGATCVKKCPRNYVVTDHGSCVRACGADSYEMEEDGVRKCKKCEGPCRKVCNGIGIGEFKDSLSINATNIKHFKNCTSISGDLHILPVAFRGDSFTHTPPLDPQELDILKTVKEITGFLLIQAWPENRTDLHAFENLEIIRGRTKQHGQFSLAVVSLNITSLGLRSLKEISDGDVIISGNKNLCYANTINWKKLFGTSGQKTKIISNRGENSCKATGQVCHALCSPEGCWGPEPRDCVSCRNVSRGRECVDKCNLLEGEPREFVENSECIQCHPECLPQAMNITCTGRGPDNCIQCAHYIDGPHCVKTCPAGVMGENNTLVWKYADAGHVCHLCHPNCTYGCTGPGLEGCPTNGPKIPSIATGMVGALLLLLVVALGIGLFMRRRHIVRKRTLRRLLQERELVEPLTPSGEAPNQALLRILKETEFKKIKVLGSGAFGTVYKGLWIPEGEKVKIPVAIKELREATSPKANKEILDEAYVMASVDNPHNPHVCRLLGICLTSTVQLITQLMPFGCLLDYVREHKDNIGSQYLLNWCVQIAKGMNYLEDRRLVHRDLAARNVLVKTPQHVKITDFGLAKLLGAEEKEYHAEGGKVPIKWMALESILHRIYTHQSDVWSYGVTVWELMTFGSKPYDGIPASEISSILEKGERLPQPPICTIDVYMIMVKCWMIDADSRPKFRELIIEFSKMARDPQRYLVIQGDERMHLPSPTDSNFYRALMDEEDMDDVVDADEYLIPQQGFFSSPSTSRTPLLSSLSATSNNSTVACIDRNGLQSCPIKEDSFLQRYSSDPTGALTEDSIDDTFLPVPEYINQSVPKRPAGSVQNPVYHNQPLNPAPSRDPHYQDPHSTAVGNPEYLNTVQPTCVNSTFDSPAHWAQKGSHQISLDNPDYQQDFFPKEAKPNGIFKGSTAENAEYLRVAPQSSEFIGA

Usually IC50 stands for the concentration that inhibits the measured activity by half. In the case of `Cc1ccc(-c2c(-c3ccc(N4CCN(C)CC4)cc3)[nH]c3nccc(Cl)c23)cc1NC(=O)/C=C/CN(C)C` [Example 143, (E)-N-(5-(4-chloro-2-(4-(4-methylpiperazin-1-yl)phenyl)-1H-pyrrolo[2,3-b]pyridin-3-yl)-2-methylphenyl)-4-(dimethylamino)but-2-enamide 2,2,2-trifluoroacetate], the IC50 was 1000 to 100000 nM in the experiment on A431; at most 100 nM on EGFR T790ML858R; at most 100 nM against EGFR wt; at most 100 nM at HER2 INS YVMA; 100 to 500 nM with H1975. The GI50 in experiment [1] and in experiment [2] was 100 to 500 nM in each case.

With `C#CC(=O)Nc1cc(-c2c(-c3ccc(N4CCN(C)CC4)cc3)[nH]c3nccc(Cl)c23)ccc1C` [Example 144, N-(5-(4-chloro-2-(4-(4-methylpiperazin-1-yl)phenyl)-1H-pyrrolo[2,3-b]pyridin-3-yl)-2-methylphenyl)propiolamide 2,2,2-trifluoroacetate], the IC50 with A431 was 1000 to 100000 nM; against EGFR T790ML858R it was at most 100 nM; against EGFR wt it was at most 100 nM; on HER2 INS YVMA it was at most 100 nM; in the experiment on H1975, 1000 to 100000 nM. Further, the GI50 in experiment [1] and in experiment [2] was 1000 to 10000 nM in each case.

As to `C=CS(=O)(=O)Nc1cc(-c2c(-c3ccc(N4CCN(C)CC4)cc3)[nH]c3nccc(Cl)c23)ccc1C` [Example 145, N-(5-(4-chloro-2-(4-(4-methylpiperazin-1-yl)phenyl)-1H-pyrrolo[2,3-b]pyridin-3-yl)-2-methylphenyl)ethenesulfonamide 2,2,2-trifluoroacetate], the IC50 in the experiment with A431 is 1000 to 100000 nM; at EGFR T790ML858R, at most 100 nM; against EGFR wt, at most 100 nM; against HER2 INS YVMA it was at most 100 nM; in the experiment on H1975, 100 to 500 nM. Besides, the GI50 in experiment [1] and in experiment [2] was 500 to 1000 nM in each case.

As for `Cc1ccc(-c2c(-c3ccc(N4CCN(C)CC4)cc3)[nH]c3ncc(C(=O)OC(C)C)cc23)cc1NC(=O)/C=C/CN(C)C` [Example 148, (E)-isoproyl 3-(3-(4-(dimethylamino)but-2-enamido)-4-methylphenyl)-2-(4-(4-methylpiperazin-1-yl)phenyl)-1H-pyrrolo[2,3-b]pyridine-5-carboxylate 2,2,2-trifluoroacetate], the IC50 in the experiment with A431 was 1000 to 100000 nM; at EGFR T790ML858R it was at most 100 nM; on EGFR wt, at most 100 nM; against HER2 INS YVMA, at most 100 nM; in the experiment on H1975 it was 500 to 1000 nM. The GI50 in experiment [1] lay in the range of 500 to 1000 nM; in experiment [2], 100 to 500 nM.

For the compound `C=CC(=O)Nc1cc(-c2c(-c3ccc(C4CCN(C)CC4)cc3)[nH]c3ncc(C(=O)OC(C)C)cc23)ccc1C` [Example 149, isoproyl 3-(3-acrylamido-4-methylphenyl)-2-(4-(1-methylpiperidin-4-yl)phenyl)-1H-pyrrolo[2,3-b]pyridine-5-carboxylate 2,2,2-trifluoroacetate], the IC50 with A431 was 1000 to 100000 nM; at EGFR T790ML858R, at most 100 nM; against EGFR wt, at most 100 nM; against HER2 INS YVMA it was at most 100 nM; with H1975, 100 to 500 nM. Also, the GI50 in experiment [1] and in experiment [2] was 100 to 500 nM each time.

On to `C=CC(=O)Nc1cc(-c2c(-c3ccc(N4CCN(C)CC4)cc3)[nH]c3nccc(Cl)c23)cc(C)c1C` [Example 150, N-(5-(4-chloro-2-(4-(4-methylpiperazin-1-yl)phenyl)-1H-pyrrolo[2,3-b]pyridin-3-yl)-2,3-dimethylphenyl)acrylamide 2,2,2-trifluoroacetate], for which the IC50 in the experiment with A431 was 500 to 1000 nM; against EGFR T790ML858R, at most 100 nM; against EGFR wt, at most 100 nM; on HER2 INS YVMA, at most 100 nM; in the experiment with H1975 it was at most 100 nM. Besides, the GI50 in experiment [1] was 100 to 500 nM; in experiment [2] it was 500 to 1000 nM.

As to `C=CC(=O)Nc1cc(-c2c(-c3ccc(CN(C)C)cc3)[nH]c3ncc(C(=O)OC(C)C)cc23)ccc1C` [Example 151, isopropyl 3-(3-acrylamido-4-methylphenyl)-2-(4-((dimethylamino)methyl)phenyl)-1H-pyrrolo[2,3-b]pyridine-5-carboxylate], the IC50 in the experiment on A431 is 1000 to 100000 nM; on EGFR T790ML858R, at most 100 nM; at EGFR wt, at most 100 nM; at HER2 INS YVMA it was at most 100 nM; with H1975 it was 100 to 500 nM. Further, the GI50 in experiment [1] and in experiment [2] was 100 to 500 nM each time.

As to `C=CC(=O)Nc1cc(-c2c(-c3ccc(C4CCN(C)CC4)cc3)[nH]c3nccc(Cl)c23)cc(C)c1C` [Example 152, N-(5-(4-chloro-2-(4-(1-methylpiperidin-4-yl)phenyl)-1H-pyrrolo[2,3-b]pyridin-3-yl)-2,3-dimethylphenyl)acrylamide], the 50% inhibitory concentration (IC50) with A431 is 500 to 1000 nM; on EGFR T790ML858R it was at most 100 nM; against EGFR wt, at most 100 nM; against HER2 INS YVMA it was at most 100 nM; with H1975 it was at most 100 nM. Besides, the GI50 in experiment [1] and in experiment [2] was 100 to 500 nM in each case.

As for `C=CC(=O)Nc1cc(-c2c(-c3ccc(N(C)CCN(C)C)cc3)[nH]c3ncc(C(=O)O)cc23)ccc1C` [Example 153, 3-(3-acrylamido-4-methylphenyl)-2-(4-((2-(dimethylamino)ethyl)(methyl)amino)phenyl)-1H-pyrrolo[2,3-b]pyridine-5-carboxylic acid 2,2,2-trifluoroacetate], the IC50 in the experiment with A431 was above 10000 nM; against EGFR T790ML858R, at most 100 nM; on EGFR wt, at most 100 nM; against HER2 INS YVMA it was at most 100 nM; in the experiment on H1975, above 10000 nM. Moreover, the GI50 in experiment [1] and in experiment [2] was above 10000 nM throughout.

As for `C=CC(=O)Nc1cc(-c2c(-c3ccnc(N4CCN(C)CC4)c3)[nH]c3ncc(C(=O)OC(C)C)cc23)ccc1C` [Example 156, isoproyl 3-(3-acrylamido-4-methylphenyl)-2-(2-(4-methylpiperazin-1-yl)pyridin-4-yl)-1H-pyrrolo[2,3-b]pyridine-5-carboxylate 2,2,2-trifluoroacetate], the IC50 with A431 was 1000 to 100000 nM; at EGFR T790ML858R it was at most 100 nM; against EGFR wt it was at most 100 nM; against HER2 INS YVMA, at most 100 nM; in the experiment with H1975, 500 to 1000 nM. The GI50 in experiment [1] and in experiment [2] was 100 to 500 nM each time.

Regarding `C=CC(=O)Nc1cc(-c2c(-c3ccc(N4CCN(C(C)=O)CC4)cc3)[nH]c3ncc(C(=O)OC(C)C)cc23)ccc1C` [Example 162, isopropyl 2-(4-(4-acetylpiperazin-1-yl)phenyl)-3-(3-acrylamido-4-methylphenyl)-1H-pyrrolo[2,3-b]pyridine-5-carboxylate], the IC50 was 1000 to 100000 nM in the experiment with A431; at most 100 nM on EGFR T790ML858R; at most 100 nM against EGFR wt; at most 100 nM on HER2 INS YVMA; 1000 to 100000 nM with H1975. The GI50 in experiment [1] is 500 to 1000 nM; in experiment [2], 1000 to 10000 nM.

For `C=CC(=O)Nc1cc(-c2c(-c3ccc(N4CCN(C)CC4)nc3)[nH]c3ncc(C(=O)OC(C)C)cc23)ccc1C` [Example 163, isopropyl 3-(3-acrylamido-4-methylphenyl)-2-(6-(4-methylpiperazin-1-yl)pyridin-3-yl)-1H-pyrrolo[2,3-b]pyridine-5-carboxylate], the 50% inhibitory concentration (IC50) with A431 is 1000 to 100000 nM; on EGFR T790ML858R, at most 100 nM; against EGFR wt, at most 100 nM; on HER2 INS YVMA it was at most 100 nM; in the experiment on H1975, 500 to 1000 nM. In addition, the GI50 in experiment [1] and in experiment [2] was 500 to 1000 nM throughout.
